Assay results from patent US11117931B2, “Antimicrobial peptide derived from Hp1404 peptide and uses thereof” (priority 2017, dated 2021).
Where no end group is shown, it is not given here.

Key:
[1] = system: lipopolysaccharide (LPS) isolated from P. aeruginosa; assay: Binding ability between lipopolysaccharide (LPS) and peptide; settings: peptide at 1×MIC
Experimental: By using the peptides prepared by the method of Example 1, binding to lipopolysaccharide (LPS), which is a constitutional component of a cell wall of Gram-negative bacteria, was examined. LPS used in the present invention was isolated from P. aeruginosa. Lipopolysacchride (0 to 100 μg/ml) was diluted with 10 mM sodium phosphate buffer (pH 7.2), reacted with each peptide at a concentration of 1× or 2×MIC, and then cultured with the bacteria at 2×10^5 CFU/ml. By measuring the absorbance at 600 nm, the binding ability to the peptide was determined. Additionally, after reacting 0.1% […] with the peptide (40 μM) in an incubator, the secondary structure was examined by circular dichroism (CD) spectroscopy.

[2] = Stability against trypsin enzyme (RP-HPLC); type: in vitro ADME; settings: 20 nM trypsin, 37° C., read-out: amount of remaining peptide; for remaining at 1 h, 200 μg/mL: reaction for 1 hour; for remaining at 2 h, 200 μg/mL: reaction for 2 hours
Experimental: To determine whether or not the peptides prepared by the method of Example 1 have stability against an enzyme, RP-HPLC (reverse-phase HPLC) was carried out. Specifically, 20 μg of the peptide was reacted with 100 μl of trypsin at concentration of 20 nM for 1 to 2 hours at 37° C. After the reaction, 20 μl of the reaction product was applied to RP-HPLC, and the amount of remaining peptide was examined.

plasmid DNA (pRSETB) = assay: Binding between antimicrobial peptide and DNA (gel electrophoresis); settings: peptide/DNA ratio 0.25:1 to 4:1, 10 minutes at 37° C.
Experimental: To figure out the working mechanism of the synthetic peptides of the present invention for showing the antimicrobial activity, electrophoresis was carried out to examine the possible binding of synthetic peptides, i.e., Hp1404, […], Hp1404-T1d and Hp1404-T1e, to DNA as an internal material of bacteria.
Specifically, after reacting the plasmid DNA (pRSETB, 260 ng) with the peptide at different ratio (i.e., peptide/DNA ratio is as follows for lane number 1 to lane number 8: DNA only, 0.25:1, 0.5:1, 1:1, 1.5:1, 2:1, 3:1, and 4:1. respectively) for 10 minutes at 37° C., they were subjected to electrophoresis using 1% agarose gel followed by ethidium bromide (EtBr) staining and UV visualization.

S. aureus (ATCC 25923) = assay: Anti-biofilm activity (crystal violet); type: cell-based, Staphylococcus aureus; settings: 24 hours at 37° C.
Experimental: To compare the antimicrobial activity among the peptides produced by the method of Example 1, the inventors of the present invention measured the biofilm inhibitory concentration value of the peptide showing no dissociation of bacterial cells.
Specifically, among the bacterial strains described in the above Table 2, bacteria showing favorable biofilm forming were cultured to a mid-log phase in each medium. Then, after dilution to bacterial cell concentration of 5×10^4 cells/100 μl, the cells were inoculated to a microtiter plate (PSL). Thereafter, Hp1404, Hp1404-T1c, Hp1404-T1d or Hp1s404-T1e peptide which has been synthesized in Example 1 above was diluted, 1/10 times for each, with 10 mM sodium phosphate (pH 7.2) solution in a 96-well plate. After adding the cells (10 μl) to a plate, the cells were cultured for 24 hours at 37° C. After removing the supernatant completely, the cells were fixed with 100% methanol for 15 minutes and reacted for 1 hour with Crystal violet staining solution followed by rinsing for 3 times. Then, after dissolving in 95% ethanol, the absorbance was measured at a wavelength of 595 nm by using a microtiter plate reader to determine the biofilm minimal inhibitory concentration value of each bacterial strain.

[3] = Cytotoxicity in normal cell line (MTT); type: cell-based; settings: human, HaCaT keratinocytes, read-out: Cell survival ability; for viability at 24 h, 6.25 µM: peptide concentration 6.25 μM; for viability at 24 h, 12.5 µM: peptide concentration 12.5 μM; for viability at 24 h, 25 µM: peptide concentration 25 μM; for viability at 24 h, 50 µM: peptide concentration 50 μM; for viability at 24 h, 100 µM: peptide concentration 100 μM; for viability at 24 h, 200 µM: peptide concentration 200 μM, HaCaT
Experimental: To determine the cytotoxicity of the peptide produced by the method of Example 1 in normal cell line, toxicity was measured by using human keratinocytes (HaCaT cell line, Dr. N E. Fusenig, Heidelberg, Germany).
Specifically, HaCaT cells which have been cultured in DMEM medium containing 10% FBS (Fetal Bovine Serum) were aliquoted in a 96-well plate to have 2×10^5 cells per well. After culturing them for 24 hours, the cells were subjected to a treatment with Hp1404, Hp1404-T1, Hp1404-T1a, Hp1404-T1b, Hp1404-T1c, Hp1404-T1d, or Hp1404-T1e, each at concentration of 6.25, 12.5, 25.0, 50.0, 100.0 or 200.0 μM/well, followed by reaction for 24 hours in a 5% CO2 incubator. After 24 hours, a reaction solution containing 0.5 mg/ml MTT (Thiazolyl Blue Tetrazolium Bromide) dissolved in physiological saline (PBS) was added in an amount of 100 μl to each well and the reaction was allowed to occur for 4 hours. After that, the supernatant was removed, and, by dissolving MTT crystals that are formed by adding 200 μl of DMSO (dimethyl sulfoxide), the absorbance at 560 nm was measured to determine the cell survival ability.

[4] = system: S. aureus or P. aeruginosa membrane; assay: Flow cytometry with propidium iodide; type: cell-based; settings: 2×MIC, 1 hour at 37° C.
Experimental: Specifically, S. aureus or P. aeruginosa was treated for 1 hour at 37° C. with the mother peptide Hp1404, or Hp1404-T1c, Hp1404-T1d or Hp1404-T1e peptide (at concentration of 2×MIC). After that, the supernatant was removed by centrifuge (10,000 rpm) and stained with propidium iodide (PI, concentration of 10 μg/ml) for 30 minutes at 4° C. Thereafter, unbound propidium iodide was removed by centrifuge, and the problem of cell aggregation phenomenon was solved by adding physiological saline (PBS) in an amount of 1 ml.

S. aureus = assay: MIC, S. aureus; type: cell-based, Staphylococcus aureus; settings: S. aureus (ATCC 25923), 18 hours at 37° C.
Text: To compare the antimicrobial activity among the peptides produced by the method of Example 1, the inventors of the present invention measured the minimal growth inhibitory concentration (MIC), which is minimum concentration of the peptide showing no dissociation of bacterial cells.
Specifically, the bacterial strain described in the following Table 2 was purchased and cultured to a mid-log phase in each medium with a composition suitable for each strain. Then, after dilution to bacterial cell concentration of 2×10^4 cells/100 μl, the cells were inoculated to a microtiter plate (NUNC, USA). Thereafter, Hp1404-T1, Hp1404-T1a, Hp1404-T1b, Hp1404-T1c, Hp1404-T1d or Hp1404-T1e peptide which has been synthesized in Example 1 above was subjected to serial dilution, ½ times for each, with BSA (bovine serum albumin) solution in a 96-well plate. After adding the cells to a plate, the cells were cultured for 18 hours at 37° C. By using a microtiter plate reader (Merck Elisa reader, Germany), the absorbance was measured at a wavelength of 600 nm to determine the MIC value of each bacterial strain. As a control group, Hp1404 as a mother peptide was used.

Row | Substance | binding to LPS, rank order [1] | remaining at 1 h, 200 μg/mL [2] [%] | remaining at 2 h, 200 μg/mL [2] [%] | binding to DNA (plasmid DNA (pRSETB)) | Biofilm minimal inhibitory concentration (S. aureus (ATCC 25923)) [µM] | viability at 24 h, 6.25 µM [3] [%] | viability at 24 h, 12.5 µM [3] [%] | viability at 24 h, 25 µM [3] [%] | viability at 24 h, 50 µM [3] [%] | viability at 24 h, 100 µM [3] [%] | viability at 24 h, 200 µM [3] [%] | propidium iodide fluorescence signal shift (membrane damage) [4] | Minimal inhibitory concentration (S. aureus) [µM]
1 | GILGKLWEGVKSIF-NH2 [Hp1404] | binding to LPS increases in order of Hp1404-T1e, Hp1404-T1d, Hp1404-T1c, and Hp1404 | 60 | 45 | did not bind to any DNA | 3.13 | 100 | 100 | 100 | 30.5 | 0.11 | 0 | bacteria membrane was damaged | 3.13
2 | ILKKLLKKVKSI-NH2 [Hp1404-T1d] | binding to LPS increases in order of Hp1404-T1e, Hp1404-T1d, Hp1404-T1c, and Hp1404 | ≥ 80 | 80 | bind to DNA | 6.25 | 100 | 53.9 | 38.9 | 33.1 | 34.6 |  | no such shift of fluorescence signal | 6.25
3 | ILKKLLKKVKKI-NH2 [Hp1404-T1e] | binding to LPS increases in order of Hp1404-T1e, Hp1404-T1d, Hp1404-T1c, and Hp1404 | ≥ 80 | 80 | bind to DNA | 12.5 | 100 | 100 | 100 | 100 | 100 | 100 | no such shift of fluorescence signal | 3.13
